As usually defined, the IC50 is the midpoint of a concentration-inhibition curve.

For assay [1], the system named is SKBR3 (PI3Kα wild type) cells. Kind of assay: CellTiter-Glo 2.0 luminescent cell viability assay, 72 hours, SKBR3 cells. The class given is cell-based. The settings on record: Homo sapiens, SK-BR-3, 72 h, SKBR3 (PI3Kα wild type) cells, CellTiter-Glo, approximately 72 hours; read-out: SKBR3 (WT) Viability IC50. In outline:
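Viability measured via CTG luminescence following roughly 72 hours of compound exposure at 37° C. Dosing used a 10 um starting concentration diluted 1:4 over 10 points; percent-of-vehicle data fitted with a variable-slope four-parameter model for IC50.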
(In general: ATP-based viability assays read luminescence as a measure of living cells.)

The subject of assay [2] is T47D (PI3Kα H1047R mutant) cells. Kind of assay: CellTiter-Glo 2.0 luminescent cell viability assay, 72 hours, T47D cells. The class given is cell-based. The settings on record: Homo sapiens, T47D, 72 h, T47D (PI3Kα H1047R mutant) cells, CellTiter-Glo, approximately 72 hours; read-out: T47D (H1047R mutant) Viability IC50. An outline of the steps: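 Cells seeded at 1000 per well overnight were dosed with a 10-concentration, 1:4 series starting at 10 µM and incubated ~72 h at 37° C. Viability was read by CellTiter-Glo 2.0 luminescence after 30 min at room temperature. IC50 came from four-parameter fits of percent vehicle control.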

In the case of `Cc1cc([C@@H](C)Nc2ccccc2C(=O)O)c2nc(O[C@@H]3CCOC3)c(C)c(=O)n2c1` [Example 11-245, 2-(((R)-1-(3,7-dimethyl-4-oxo-2-(((R)-tetrahydrofuran-3-yl)oxy)-4H-pyrido[1,2-a]pyrimidin-9-yl)ethyl)amino)benzoic acid], the results for the IC50 in assay [1] and in assay [2] were over 10 µM and 0.166 µM, respectively.
The matching figures for `Cc1cc([C@@H](C)Nc2ccccc2C(=O)O)c2nc(O[C@H]3CCOC3)c(C)c(=O)n2c1` [Example 11-246, 2-(((R)-1-(3,7-dimethyl-4-oxo-2-(((S)-tetrahydrofuran-3-yl)oxy)-4H-pyrido[1,2-a]pyrimidin-9-yl)ethyl)amino)benzoic acid]: over 10 µM and 0.196 µM.
With `Cc1cc([C@@H](C)Nc2ccccc2C(=O)O)c2nc(O[C@@H]3CCOC3)c(C#N)c(=O)n2c1` [Example 11-247, 2-(((R)-1-(3-cyano-7-methyl-4-oxo-2-(((R)-tetrahydrofuran-3-yl)oxy)-4H-pyrido[1,2-a]pyrimidin-9-yl)ethyl)amino)benzoic acid], the IC50 is over 10 µM in assay [1] and 1.54 µM in assay [2].
The matching figures for `Cc1cc([C@@H](C)Nc2ccccc2C(=O)O)c2nc(O[C@H]3CCOC3)c(C#N)c(=O)n2c1` [Example 11-248, 2-(((R)-1-(3-cyano-7-methyl-4-oxo-2-(((S)-tetrahydrofuran-3-yl)oxy)-4H-pyrido[1,2-a]pyrimidin-9-yl)ethyl)amino)benzoic acid]: 4.31 µM and 2.2 µM.
The matching figures for `CNC(=O)c1ccc(N2CCN(c3nc4c([C@@H](C)Nc5ccccc5C(=O)O)cc(C)cn4c(=O)c3C)CC2)cc1` [Example 11-249, (R)-2-((1-(3,7-dimethyl-2-(4-(4-(methylcarbamoyl)phenyl)piperazin-1-yl)-4-oxo-4H-pyrido[1,2-a]pyrimidin-9-yl)ethyl)amino)benzoic acid]: over 10 µM and 0.118 µM.
As for `Cc1cc([C@@H](C)Nc2ccccc2C(=O)O)c2nc(N3CCN(c4ccc(C(N)=O)cc4)CC3)c(C)c(=O)n2c1` [Example 11-250, (R)-2-((1-(2-(4-(4-carbamoylphenyl)piperazin-1-yl)-3,7-dimethyl-4-oxo-4H-pyrido[1,2-a]pyrimidin-9-yl)ethyl)amino)benzoic acid], the figures for the IC50 in assay [1] and in assay [2] were over 10 µM and 0.482 µM, respectively.
The matching figures for `Cc1cc([C@@H](C)Nc2ccccc2C(=O)O)c2nc(N3CCN(c4cccc5c(C#N)nn(C)c45)CC3)c(C)c(=O)n2c1` [Example 11-251, (R)-2-((1-(2-(4-(3-cyano-1-methyl-1H-indazol-7-yl)piperazin-1-yl)-3,7-dimethyl-4-oxo-4H-pyrido[1,2-a]pyrimidin-9-yl)ethyl)amino)benzoic acid]: over 10 µM and 0.263 µM.
The matching figures for `Cc1cc([C@@H](C)Nc2ccccc2C(=O)O)c2nc(N3CCC(c4cc[nH]n4)CC3)c(C)c(=O)n2c1` [Example 11-252, (R)-2-((1-(2-(4-(1H-pyrazol-3-yl)piperidin-1-yl)-3,7-dimethyl-4-oxo-4H-pyrido[1,2-a]pyrimidin-9-yl)ethyl)amino)benzoic acid]: over 10 µM and 0.114 µM.
As for `Cc1cc([C@@H](C)Nc2ccccc2C(=O)O)c2nc(C#Cc3ccc(C#N)cc3)c(C)c(=O)n2c1` [Example 11-253, (R)-2-((1-(2-((4-cyanophenyl)ethynyl)-3,7-dimethyl-4-oxo-4H-pyrido[1,2-a]pyrimidin-9-yl)ethyl)amino)benzoic acid], the IC50 in assay [1] is over 10 µM; in assay [2], 0.492 µM.
Take `Cc1cc([C@@H](C)Nc2ccccc2C(=O)O)c2nc(N3CCN(c4ccc(C#N)c5cc(O)ccc45)CC3)c(C)c(=O)n2c1` [Example 11-254, (R)-2-((1-(2-(4-(4-cyano-6-hydroxynaphthalen-1-yl)piperazin-1-yl)-3,7-dimethyl-4-oxo-4H-pyrido[1,2-a]pyrimidin-9-yl)ethyl)amino)benzoic acid]: the 50% inhibitory concentration (IC50) was over 10 µM in assay [1] and 0.124 µM in assay [2].
For `Cc1cc([C@@H](C)Nc2ccccc2C(=O)O)c2nc(N3CCN(c4ccc(C#N)c5ccc(O)cc45)CC3)c(C)c(=O)n2c1` [Example 11-255, (R)-2-((1-(2-(4-(4-cyano-7-hydroxynaphthalen-1-yl)piperazin-1-yl)-3,7-dimethyl-4-oxo-4H-pyrido[1,2-a]pyrimidin-9-yl)ethyl)amino)benzoic acid], the IC50 was over 10 µM in assay [1] and 0.28 µM in assay [2].
On the same counts, the results for `CC(=O)N1CCC(c2nc3c([C@@H](C)Nc4ccccc4C(=O)O)cc(C)cn3c(=O)c2C#N)CC1` [Example 11-256, (R)-2-((1-(2-(1-acetylpiperidin-4-yl)-3-cyano-7-methyl-4-oxo-4H-pyrido[1,2-a]pyrimidin-9-yl)ethyl)amino)benzoic acid] are over 10 µM and 0.511 µM.
The matching figures for `Cc1cc(C(C)Nc2ccccc2C(=O)O)c2nc(N3CCN(c4ccc(CN)cc4)CC3)cc(=O)n2c1` (stereo not drawn) [Example 11-257, 2-((1-(2-(4-(4-(aminomethyl)phenyl)piperazin-1-yl)-7-methyl-4-oxo-4H-pyrido[1,2-a]pyrimidin-9-yl)ethyl)amino)benzoic acid]: over 10 µM and 9.52 µM.
On the same counts, the results for `Cc1cc([C@@H](C)Nc2ccccc2C(=O)O)c2nc(N3CCN(c4ncc(C#N)cn4)CC3)c(C)c(=O)n2c1` [Example 11-258, (R)-2-((1-(2-(4-(5-cyanopyrimidin-2-yl)piperazin-1-yl)-3,7-dimethyl-4-oxo-4H-pyrido[1,2-a]pyrimidin-9-yl)ethyl)amino)benzoic acid] are over 10 µM and 0.119 µM.
For the molecule `Cc1cc([C@@H](C)Nc2ccccc2C(=O)O)c2nc(N3CCN(c4ccccc4C#N)CC3)c(C#N)c(=O)n2c1` [Example 11-260, (R)-2-((1-(3-cyano-2-(4-(2-cyanophenyl)piperazin-1-yl)-7-methyl-4-oxo-4H-pyrido[1,2-a]pyrimidin-9-yl)ethyl)amino)benzoic acid], the values for the IC50 in assay [1] and in assay [2] were over 10 µM and 0.368 µM, respectively.
As to `Cc1cc([C@@H](C)Nc2ccccc2C(=O)O)c2nc(N3CCN(C(=O)c4ccccc4)CC3)c(C#N)c(=O)n2c1` [Example 11-263, (R)-2-((1-(2-(4-benzoylpiperazin-1-yl)-3-cyano-7-methyl-4-oxo-4H-pyrido[1,2-a]pyrimidin-9-yl)ethyl)amino)benzoic acid], the IC50 in assay [1] was over 10 µM; in assay [2] it was 1.29 µM.
The matching figures for `Cc1cc([C@@H](C)Nc2ccccc2C(=O)O)c2nc(N3CCN(c4cnn(C)c4)CC3)c(C#N)c(=O)n2c1` [Example 11-264, (R)-2-((1-(3-cyano-7-methyl-2-(4-(1-methyl-1H-pyrazol-4-yl)piperazin-1-yl)-4-oxo-4H-pyrido[1,2-a]pyrimidin-9-yl)ethyl)amino)benzoic acid]: over 10 µM and 1.18 µM.
On the same counts, the results for `Cc1cc([C@@H](C)Nc2ccccc2C(=O)O)c2nc(N3CCN(c4cnn(C)c4)CC3)c(C)c(=O)n2c1` [Example 11-265, (R)-2-((1-(3,7-dimethyl-2-(4-(1-methyl-1H-pyrazol-4-yl)piperazin-1-yl)-4-oxo-4H-pyrido[1,2-a]pyrimidin-9-yl)ethyl)amino)benzoic acid] are over 10 µM and 0.248 µM.

The values are drawn from patent US20260078120A1, “SUBSTITUTED PYRIDOPYRIMIDINONES” (MIRATI THERAPEUTICS, INC., priority 2022, published 2026).
